Values of other authors as cited in PMC3461162 (British Journal of Cancer, 2012).

Settings: phase I, currently being investigated; no reference given; cited from earlier work

**Q.** For CNC(=O)c1cccc(-c2ccc3c(N4CCOC[C@@H]4C)nc(N4CCOC[C@@H]4C)nc3n2)c1 [AZD2014], which Rise in transaminases is on record?
**A.** Its Rise in transaminases is “no rise in transaminases has been reported”.
